pEC50: −log10 of the molar value.
Columns and labels:
Bmi-1 protein = assay: Sandwich ELISA Assay: Bmi-1 protein level in HT-1080 cells treated with test compounds; format: cell-based
Method in brief: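 HT-1080 cells exposed to compounds (final DMSO 0.5%) for 40-48 h at 37° C, 5% CO2, then lysed. Bmi-1 quantified by sandwich ELISA (mouse anti-Bmi-1 capture, rabbit anti-Bmi-1 detection, HRP anti-rabbit, TMB), read at OD450 with OD570 reference, against recombinant GST-Bmi-1 standard curve (0-8000 pg/mL).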

| SMILES | melting point [°C] | pEC50 (Bmi-1 protein) |
| --- | --- | --- |
| Nc1nc(Nc2ccc(OC(F)F)cc2)nc(-n2c(C(F)F)nc3ccccc32)n1 [Cpd 103, N-[4-(difluoromethoxy)phenyl]-6-[2-(difluoromethyl)-1H-benzimidazol-1-yl]-1,3,5-triazine-2,4-diamine] | 197 to 199 | 7.00 to 8.00 |
| Nc1nc(Nc2ccc(OC(F)F)c(F)c2)nc(-n2c(CF)nc3ccccc32)n1 [Cpd 109, N-[4-(difluoromethoxy)-3-fluorophenyl]-6-[2-(fluoromethyl)-1H-benzimidazol-1-yl]-1,3,5-triazine-2,4-diamine] | 166 to 168 | 7.00 to 8.00 |
| Cc1nc2cc(Cl)c(Cl)cc2n1-c1nc(N)nc(Nc2ccc(C(F)(F)F)cc2)n1 [Cpd 12, 6-(5,6-dichloro-2-methyl-1H-benzimidazol-1-yl)-N-[4-(trifluoromethyl)phenyl]-1,3,5-triazine-2,4-diamine] | – | 5.52 to 7.00 |
| Nc1nc(Nc2ccc(Cl)cc2)nc(-n2c(C3CC3)nc3ccccc32)n1 [Cpd 157, N-(4-chlorophenyl)-6-(2-cyclopropyl-1H-benzimidazol-1-yl)-1,3,5-triazine-2,4-diamine] | – | 7.00 to 8.00 |
| CCc1nc2ccccc2n1-c1nc(N)nc(Nc2ccc(C)cc2)n1 [Cpd 160, 6-(2-ethyl-1H-benzimidazol-1-yl)-N-(4-methylphenyl)-1,3,5-triazine-2,4-diamine] | – | 8.00 to 9.00 |
| Cc1nc2ccccc2n1-c1nc(N)nc(Nc2ccc(C(F)(F)F)nc2)n1 [Cpd 51, 6-(2-methyl-1H-benzimidazol-1-yl)-N-[6-(trifluoromethyl)pyridin-3-yl]-1,3,5-triazine-2,4-diamine] | – | 7.00 to 8.00 |
| COc1cccc(Nc2nc(N)nc(-n3c(C4CC4)nc4ccccc43)n2)c1 [Cpd 154, 6-(2-cyclopropyl-1H-benzimidazol-1-yl)-N-(3-methoxyphenyl)-1,3,5-triazine-2,4-diamine] | – | 5.52 to 7.00 |
| Cc1nn2ccccc2c1-c1nc(N)nc(Nc2ccc(OC(F)F)cc2)n1 [Cpd 123, N-[4-(difluoromethoxy)phenyl]-6-(2-methylpyrazolo[1,5-a]pyridin-3-yl)-1,3,5-triazine-2,4-diamine] | – | 5.52 to 7.00 |
| Cc1nc2cc(Cl)ccc2n1-c1nc(N)nc(Nc2ccc(C(F)(F)F)cc2)n1 [Cpd 74, 6-(5-chloro-2-methyl-1H-benzimidazol-1-yl)-N-[4-(trifluoromethyl)phenyl]-1,3,5-triazine-2,4-diamine] | – | 5.52 to 7.00 |
| CCc1nc2cc(F)ccc2n1-c1nc(N)nc(Nc2ccc(C(F)(F)F)cc2)n1 [Cpd 58, 6-(2-ethyl-5-fluoro-1H-benzimidazol-1-yl)-N-[4-(trifluoromethyl)phenyl]-1,3,5-triazine-2,4-diamine] | – | 7.00 to 8.00 |
| Cc1nc2ccc(F)cc2n1-c1nc(N)nc(Nc2ccc(Br)cc2)n1 [Cpd 211, N-(4-bromophenyl)-6-(6-fluoro-2-methyl-1H-benzimidazol-1-yl)-1,3,5-triazine-2,4-diamine] | – | 7.00 to 8.00 |
| CCc1nc2c(F)cc(F)cc2n1-c1nc(N)nc(Nc2ccc(Br)cc2)n1 [Cpd 209, N-(4-bromophenyl)-6-(2-ethyl-4,6-difluoro-1H-benzimidazol-1-yl)-1,3,5-triazine-2,4-diamine] | – | 8.00 to 9.00 |
| Nc1nc(Nc2ccc(Cl)cc2)nc(-n2c(C3CC3)nc3ccc(F)cc32)n1 [Cpd 178, N-(4-chlorophenyl)-6-(2-cyclopropyl-6-fluoro-1H-benzimidazol-1-yl)-1,3,5-triazine-2,4-diamine] | – | 7.00 to 8.00 |
| Fc1ccc2nc(C3CC3)n(-c3cnnc(Nc4ccc(OC(F)F)cc4)n3)c2c1 [Cpd 138, 5-(2-cyclopropyl-6-fluoro-1H-benzimidazol-1-yl)-N-[4-(difluoromethoxy)phenyl]-1,2,4-triazin-3-amine] | – | 5.52 to 7.00 |
| CCc1nc2ncc(F)cc2n1-c1nc(N)nc(Nc2ccc(C(F)(F)F)cc2)n1 [Cpd 82, 6-(2-ethyl-6-fluoro-1H-imidazo[4,5-b]pyridin-1-yl)-N-[4-(trifluoromethyl)phenyl]-1,3,5-triazine-2,4-diamine] | – | 7.00 to 8.00 |
| Cc1nc2ccc(F)cc2n1-c1nc(N)nc(Nc2ccc(Cl)cc2)n1 [Cpd 166, N-(4-chlorophenyl)-6-(6-fluoro-2-methyl-1H-benzimidazol-1-yl)-1,3,5-triazine-2,4-diamine] | – | 7.00 to 8.00 |
| Nc1nc(Nc2ccc(OC(F)(F)F)cc2)nc(-n2c(C3CC3)nc3ccccc32)n1 [Cpd 225, 6-(2-cyclopropyl-1H-benzimidazol-1-yl)-N-[4-(trifluoromethoxy)phenyl]-1,3,5-triazine-2,4-diamine] | – | 5.52 to 7.00 |
| CCc1nc2ccccc2n1-c1nncc(Nc2ccc(OC)cc2)n1 [Cpd 145, 3-(2-ethyl-1H-benzimidazol-1-yl)-N-(4-methoxyphenyl)-1,2,4-triazin-5-amine] | – | 8.00 to 9.00 |
| Nc1nc(Nc2ccc(OC(F)F)cc2)nc(-n2c(C3CC3)nc3ccc(F)cc32)n1 [Cpd 63, 6-(2-cyclopropyl-6-fluoro-1H-benzimidazol-1-yl)-N-[4-(difluoromethoxy)phenyl]-1,3,5-triazine-2,4-diamine] | – | 7.00 to 8.00 |

| SMILES | melting point [°C] | pEC50 (Bmi-1 protein) |
| --- | --- | --- |
| N#CCc1nc2ccccc2n1-c1nc(N)nc(Nc2ccc(C(F)(F)F)cc2)n1 [Cpd 119, [1-(4-amino-6-{[4-(trifluoromethyl)phenyl]amino}-1,3,5-triazin-2-yl)-1H-benzimidazol-2-yl]acetonitrile] | – | 5.52 to 7.00 |
| Cc1nc2ncc(Br)cc2n1-c1nc(N)nc(Nc2ccc(OC(F)F)c(F)c2)n1 [Cpd 39, 6-(6-bromo-2-methyl-1H-imidazo[4,5-b]pyridin-1-yl)-N-[4-(difluoromethoxy)-3-fluorophenyl]-1,3,5-triazine-2,4-diamine] | – | 7.00 to 8.00 |
| Cc1nc2ccccc2n1-c1cnnc(Nc2ccc(OC(F)F)cc2)n1 [Cpd 202, N-[4-(difluoromethoxy)phenyl]-5-(2-methyl-1H-benzimidazol-1-yl)-1,2,4-triazin-3-amine] | – | 5.52 to 7.00 |
| Cc1nc2ccccc2n1-c1nc(N)nc(Nc2ccc(C#N)cc2)n1 [Cpd 151, 4-{[4-amino-6-(2-methyl-1H-benzimidazol-1-yl)-1,3,5-triazin-2-yl]amino}benzonitrile] | – | 5.52 to 7.00 |
| FC(F)(F)c1ccc(Nc2nncc(-n3c(C4CC4)nc4ccccc43)n2)cc1 [Cpd 133, 5-(2-cyclopropyl-1H-benzimidazol-1-yl)-N-[4-(trifluoromethyl)phenyl]-1,2,4-triazin-3-amine] | – | 7.00 to 8.00 |
| CCc1nc2ccc(F)cc2n1-c1nc(N)nc(Nc2ccc(C(F)(F)F)cc2)n1 [Cpd 55, 6-(2-ethyl-6-fluoro-1H-benzimidazol-1-yl)-N-[4-(trifluoromethyl)phenyl]-1,3,5-triazine-2,4-diamine] | – | 7.00 to 8.00 |
| Nc1nc(Nc2ccc(OC(F)F)cc2)nc(-c2c(C(F)(F)F)nc3ccccn23)n1 [Cpd 72, N-[4-(difluoromethoxy)phenyl]-6-[2-(trifluoromethyl)imidazo[1,2-a]pyridin-3-yl]-1,3,5-triazine-2,4-diamine] | – | 7.00 to 8.00 |
| Nc1nc(Nc2ccc(OC(F)F)c(F)c2)nc(-n2c(C3CC3)nc3ccccc32)n1 [Cpd 44, 6-(2-cyclopropyl-1H-benzimidazol-1-yl)-N-[4-(difluoromethoxy)-3-fluorophenyl]-1,3,5-triazine-2,4-diamine] | – | 7.00 to 8.00 |
| COc1ccc(Nc2nc(N)nc(-c3c(C(F)(F)F)nc4ccccn34)n2)cc1F [Cpd 1, N-(3-fluoro-4-methoxyphenyl)-6-[2-(trifluoromethyl)imidazo[1,2-a]pyridin-3-yl]-1,3,5-triazine-2,4-diamine] | – | 8.00 to 9.00 |
| Cc1nc2ccccc2n1-c1nncc(Nc2ccc(C(F)(F)F)cc2)n1 [Cpd 94, 3-(2-methyl-1H-benzimidazol-1-yl)-N-[4-(trifluoromethyl)phenyl]-1,2,4-triazin-5-amine] | – | 5.52 to 7.00 |
| COc1ccc(Nc2nncc(-n3c(C)nc4ccccc43)n2)cc1 [Cpd 204, N-(4-methoxyphenyl)-5-(2-methyl-1H-benzimidazol-1-yl)-1,2,4-triazin-3-amine] | – | 8.00 to 9.00 |
| CCc1nc2c(F)cccc2n1-c1nc(N)nc(Nc2ccc(OC)cc2)n1 [Cpd 212, 6-(2-ethyl-4-fluoro-1H-benzimidazol-1-yl)-N-(4-methoxyphenyl)-1,3,5-triazine-2,4-diamine] | – | 8.00 to 9.00 |
| Fc1ccc2nc(C3CC3)n(-c3nncc(Nc4ccc(C(F)(F)F)cc4)n3)c2c1 [Cpd 132, 3-(2-cyclopropyl-6-fluoro-1H-benzimidazol-1-yl)-N-[4-(trifluoromethyl)phenyl]-1,2,4-triazin-5-amine] | – | 7.00 to 8.00 |
| Cc1nc2ccccc2n1-c1nc(N)nc(Nc2ccc3c(c2)OCO3)n1 [Cpd 18, N-(1,3-benzodioxol-5-yl)-6-(2-methyl-1H-benzimidazol-1-yl)-1,3,5-triazine-2,4-diamine] | – | 8.00 to 9.00 |
| Nc1nc(Nc2ccc(OC(F)F)c(F)c2)nc(-n2c(C(F)F)nc3cc(F)c(F)cc32)n1 [Cpd 117, N-[4-(difluoromethoxy)-3-fluorophenyl]-6-[2-(difluoromethyl)-5,6-difluoro-1H-benzimidazol-1-yl]-1,3,5-triazine-2,4-diamine] | – | 5.52 to 7.00 |
| Cc1nc2ncc(Br)cc2n1-c1nc(NCCO)nc(Nc2ccc(C(F)(F)F)cc2)n1 [Cpd 34, 2-{[4-(6-bromo-2-methyl-1H-imidazo[4,5-b]pyridin-1-yl)-6-{[4-(trifluoromethyl)phenyl]amino}-1,3,5-triazin-2-yl]amino}ethanol] | – | 5.52 to 7.00 |
| Nc1nc(Nc2ccc(OC(F)F)c(F)c2)nc(-n2c(C3CC3)nc3ccc(F)cc32)n1 [Cpd 64, 6-(2-cyclopropyl-6-fluoro-1H-benzimidazol-1-yl)-N-[4-(difluoromethoxy)-3-fluorophenyl]-1,3,5-triazine-2,4-diamine] | – | 7.00 to 8.00 |
| CCc1nc2ccc(F)cc2n1-c1cnnc(Nc2ccc(C(F)(F)F)cc2)n1 [Cpd 125, 5-(2-ethyl-6-fluoro-1H-benzimidazol-1-yl)-N-[4-(trifluoromethyl)phenyl]-1,2,4-triazin-3-amine] | – | 5.52 to 7.00 |

From patent US9975878B2, “Substituted triazine BMI-1 inhibitors” (PTC Therapeutics, Inc., priority 2013, dated 2018)
